Test results: ChEMBL document CHEMBL1255369, “In vitro susceptibility of isolates of Francisella tularensis types A and B from North America” (2008)
≈ marks a conversion by molar mass, not a printed value.

Assays:
Assay type in all cases: functional
[1] = (§1) Antimicrobial activity against Francisella tularensis subsp. holarctica after 48 hrs by broth microdilution method
[2] = (§2) Antimicrobial activity against Francisella tularensis subsp. tularensis after 48 hrs by broth microdilution method
[3] = Antimicrobial activity against Francisella tularensis subsp. holarctica LVS after 48 hrs by broth microdilution method
[4] = test system: Francisella tularensis subsp. holarctica; assay: as §1
[5] = test system: Francisella tularensis subsp. tularensis; assay: as §2

Row | Compound | MIC50 [1] [µg/mL] | MIC90 [1] [µg/mL] | MIC50 [2] [µg/mL] | MIC90 [2] [µg/mL] | MIC [2] [µg/mL] | MIC [3] [µg/mL] | MIC50 [4] [µg/mL] | MIC90 [4] [µg/mL] | MIC50 [5] [µg/mL] | MIC90 [5] [µg/mL]
1 | CN[C@@H]1[C@H](O[C@H]2[C@H](O[C@H]3[C@H](O)[C@@H](O)[C@H](N=C(N)N)[C@@H](O)[C@@H]3N=C(N)N)O[C@@H](C)[C@]2(O)C=O)O[C@@H](CO)[C@H](O)[C@H]1O [STREPTOMYCIN] | 1 (≈ 1.72 µM) | 2 (≈ 3.44 µM) | 1 (≈ 1.72 µM) | 2 (≈ 3.44 µM) | – | – | – | – | – | –
2 | CC[C@H]1OC(=O)[C@H](C)[C@@H](O[C@H]2C[C@@](C)(OC)[C@@H](O)[C@H](C)O2)[C@H](C)[C@@H](O[C@@H]2O[C@H](C)C[C@H](N(C)C)[C@H]2O)[C@](C)(O)C[C@@H](C)C(=O)[C@H](C)[C@@H](O)[C@]1(C)O [ERYTHROMYCIN] | 2 (≈ 2.73 µM) | 2 (≈ 2.73 µM) | 0.5 (≈ 0.681 µM) | 0.5 (≈ 0.681 µM) | 0.5 (≈ 0.681 µM) | > 256 | – | – | – | –
3 | O=C(O)c1cn(C2CC2)c2cc(N3CCNCC3)c(F)cc2c1=O [CIPROFLOXACIN] | 0.03 (≈ 0.0905 µM) | 0.06 (≈ 0.181 µM) | 0.015 (≈ 0.0453 µM) | 0.03 (≈ 0.0905 µM) | – | – | – | – | – | –
4 | C[C@H]1c2cccc(O)c2C(=O)C2=C(O)[C@]3(O)C(=O)C(C(N)=O)=C(O)[C@@H](N(C)C)[C@@H]3[C@@H](O)[C@@H]21.O [DOXYCYCLINE] | 1 | 2 | 0.5 | 1 | – | – | – | – | – | –
5 | CN(C)[C@@H]1C(O)=C(C(N)=O)C(=O)[C@@]2(O)C(O)=C3C(=O)c4c(O)cccc4[C@@](C)(O)[C@H]3C[C@@H]12 [TETRACYCLINE] | 0.5 (≈ 1.13 µM) | 1 (≈ 2.25 µM) | 0.5 (≈ 1.13 µM) | 1 (≈ 2.25 µM) | – | – | – | – | – | –
6 | O=C(N[C@H](CO)[C@H](O)c1ccc([N+](=O)[O-])cc1)C(Cl)Cl [CHLORAMPHENICOL] | 2 (≈ 6.19 µM) | 2 (≈ 6.19 µM) | 1 (≈ 3.09 µM) | 2 (≈ 6.19 µM) | – | – | – | – | – | –
7 | C[C@H]1COc2c(N3CCN(C)CC3)c(F)cc3c(=O)c(C(=O)O)cn1c23.C[C@H]1COc2c(N3CCN(C)CC3)c(F)cc3c(=O)c(C(=O)O)cn1c23.O [LEVOFLOXACIN] | 0.03 | 0.06 | 0.03 | 0.06 | – | – | – | – | – | –
8 | GENTAMICIN | – | – | – | – | – | – | 0.12 | 0.25 | 0.06 | 0.12
